From ChEMBL document CHEMBL3745684, “Synthesis of a norcantharidin-tethered guanosine: Protein phosphatase-1 inhibitors that change alternative splicing” (Bioorg Med Chem Lett, 2016)
Activity calls are given as the source filed them. The calls are words filed in the database; no cut-off is given here.

How the values were obtained:
Format in all cases: cell-based
HEK293 [1] = experiment: Inhibition of protein phosphatase-1 in human HEK293 cells assessed as increase in exon 7 inclusion in the survival of motor neuron 2 gene after 14 to 16 hrs by RT-PCR analysis
HEK293 [2] = experiment: Inhibition of protein phosphatase-1 in human HEK293 cells assessed as increase in exon 7 inclusion in the survival of motor neuron 2 gene at 10 to 100 uM after 14 to 16 hrs by RT-PCR analysis
HEK293 [3] = experiment: Inhibition of protein phosphatase-1 in human HEK293 cells assessed as exon 7 inclusion in the survival of motor neuron 2 gene at 1 to 100 uM after 14 to 16 hrs by RT-PCR analysis

Row | Structure (SMILES) | Activity (HEK293 [1]) | Activity (HEK293 [2]) | inhibition (HEK293 [3])
1 | CO[C@@H]1[C@H](OP(=O)(O)OCCc2ccc(CCN(C)C(=O)[C@H]3[C@@H](C(=O)O)[C@@H]4CC[C@H]3O4)cc2)[C@@H](CO)O[C@H]1n1cnc2c(=O)[nH]c(N)nc21 (mixture of isomers) | Dose-dependent effect | 25% | –
2 | CNCCc1ccc(CCO)cc1 | – | – | inactive
